We go through one compound from ChEMBL document CHEMBL3832064, “DailyMed|setid=5eda246b-ac51-46e7-b473-35937f84ed05 | GLIMEPIRIDE - glimepiride tablet|Perrigo New York Inc”.

Holding throughout (type): ADME, organism-based
A short description of data set [1]: (§1) Evalaution of pharmacokinetic parameters for Glimepiride following single oral […] of Glimepiride tablets […] to healthy subjects and to patients with type 2 diabetes. Details: dose 4 mg, dose 1 mg, dose 2 mg, dose 8 mg, route oral. Particulars: human, in vivo, dosed compound id 27, dosed compound name GLIMEPIRIDE, regimen Single dose, tissue Plasma.

Data set [2] has as its system Homo sapiens. Described as §1. Details: dose 4 mg, dose 1 mg, dose 2 mg, dose 8 mg, route oral. Particulars: in vivo, po, dosed compound id 27, dosed compound name GLIMEPIRIDE, regimen Single dose, tissue Plasma.
Data set [3] can be described thus: (§2) Evalaution of pharmacokinetic parameters for Glimepiride following multiple doses of Glimepiride […] to healthy subjects and to patients with type 2 diabetes. The arrangement: dose 4 mg, dose 8 mg, route oral. The settings on record: human, in vivo, dosed compound id 27, dosed compound name GLIMEPIRIDE, regimen Multiple dose, study dosing duration 10 days, tissue Plasma.

The species entered for data set [4] is Homo sapiens. The data set is described as §2. Details: dose 4 mg, dose 8 mg, route oral. The settings on record: in vivo, po, dosed compound id 27, dosed compound name GLIMEPIRIDE, regimen Multiple dose, study dosing duration 10 days, tissue Plasma.
Data set [5] is described as follows: Pharmacokinetic parameters evaluated following intravenous […] of Glimepiride […] to normal subjects. Particulars: human, in vivo, dosed compound id 27, dosed compound name GLIMEPIRIDE, tissue Plasma.
[6] abbreviates: dose 1-8 mg, study dosing duration 1 day.

Broadly, the AUC is concentration integrated over time. In general, half-life refers to how long it takes for the measured level to halve. By CL/F is commonly meant clearance divided by bioavailability, as obtained after extravascular dosing. As a reminder, the Tmax is the time from dosing to the highest level. A word on the Vd/F: it is the apparent distribution volume after extravascular dosing. Broadly, the Cmax is the highest concentration seen after dosing. As usually defined, the Vd is a proportionality between amount in the body and measured concentration, not a real space. By clearance is commonly meant a measure of how efficiently the substance is removed, as volume per time.

Where “and” joins values, the source holds several entries; their conditions need not be identical. Equal entries are not always repeated.

Consider `CCC1=C(C)CN(C(=O)NCCc2ccc(S(=O)(=O)NC(=O)N[C@H]3CC[C@H](C)CC3)cc2)C1=O` [GLIMEPIRIDE], for which the AUC in data set [1] (po, gender male and female, read-out: AUC(0-last)) stood at 339 ng·h/mL. Also, the half-life in data set [1] (dose 1 mg, gender male and female, route oral) was 3.1 h; in data set [3] (dose 1-8 mg, route oral) it was 9.2 h. For the same compound, the CL/F in data set [1] (dose 1-8 mg, route oral) amounted to 52.1 mL/min; in the data set on Homo sapiens [2] (setting [6]) it was 48.5 mL/min; in data set [3] (dose 1-8 mg, route oral) it was 52.7 mL/min. Further, the Tmax in data set [1] (dose 1-8 mg, route oral) turned out to be 2.4 h; in the data set with Homo sapiens [2] (setting [6]), 2.5 h; in data set [3] (dose 1-8 mg, route oral) it was 2.8 h. The Vd/F came to 21.8 L in data set [1] (dose 1-8 mg, route oral); 19.8 L in the data set on Homo sapiens [2] (setting [6]); 37.1 L in data set [3] (dose 1-8 mg, route oral). For the same compound, the t1/2 with Homo sapiens [2] (dose 1 mg, gender male and female) amounted to 5.3 h; with Homo sapiens [2] (setting [6]) it was 5 h. Moreover, the “AUC(0-last)” value in the data set on Homo sapiens [2] (gender male and female) is 315.2 ng·h/mL. Also, the Cmax is 102.4 ng/mL and 103.2 ng/mL with Homo sapiens [2] (gender male and female); 352 ng/mL and 591 ng/mL with Homo sapiens [2] (study dosing duration 1 day); 578 ng/mL in data set [3] (po); 309 ng/mL in the data set listed under Homo sapiens [4]. Also, the Vd in data set [5] was found to be 8.8 L. The clearance in data set [5] turned out to be 47.8 mL/min.
